In ChEMBL document CHEMBL1806354 (J Med Chem, 2011):
The source made the active and inactive calls. The rule behind the calls is not given here.

Legend:
D(2) dopamine receptor [1] = biological target: T1, D(2) dopamine receptor (Homo sapiens, UniProt P14416); test: Agonist activity at dopamine D2 receptor expressed in HEK293 cells assessed as stimulation of [35S]GTPgammaS binding after 30 mins; format: functional, cell-based
[2] = biological target: T2, 5-hydroxytryptamine receptor 1A (Homo sapiens, UniProt P08908); test: Agonist activity at 5-HT1A receptor expressed in CHO cells assessed as stimulation of [35S]GTPgammaS binding after 30 mins; format: functional, cell-based
T2 sequence (P08908 whole entry): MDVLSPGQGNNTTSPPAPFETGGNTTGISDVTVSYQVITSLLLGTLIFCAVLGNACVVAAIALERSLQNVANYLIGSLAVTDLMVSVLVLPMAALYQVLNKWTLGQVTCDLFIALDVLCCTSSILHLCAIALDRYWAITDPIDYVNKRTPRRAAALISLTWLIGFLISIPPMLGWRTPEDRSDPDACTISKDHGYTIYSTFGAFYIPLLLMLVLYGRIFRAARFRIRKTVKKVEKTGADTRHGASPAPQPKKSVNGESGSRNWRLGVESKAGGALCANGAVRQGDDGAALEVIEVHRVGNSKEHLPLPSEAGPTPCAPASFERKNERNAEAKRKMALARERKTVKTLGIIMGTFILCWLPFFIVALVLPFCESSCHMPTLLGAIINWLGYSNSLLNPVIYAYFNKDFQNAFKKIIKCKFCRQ

Rattus norvegicus [3] = test: Agonist activity at 5HT1A receptor in lesioned striatum of rat L-DOPA-induced dyskinesia model assessed as stimulation of 8-OH-DPAT-induced [35S]GTPgammaS binding at 1.5 mg/kg administered qd for 21 days by liquid scintillation counting; format: functional, organism-based; parameters: dose 1.5 mg/kg
Rattus norvegicus [4] = test: Antiparkinsonian effect in Parkinson's disease rat model assessed as effect on contralateral rotations measured per 5 mins at 0.5 to 1.5 mg/kg, ip qd for 21 days; format: functional, organism-based
[5] = biological target: T3, 5-hydroxytryptamine receptor 1A (Rattus norvegicus) (UniProt P19327); test: Effect on 5HT1A receptor-mediated pair pulse ratio in Sprague-Dawley rat median prefrontal cortex at 10 uM by whole-cell voltage clamp assay; format: tissue-based
T3 sequence (whole entry): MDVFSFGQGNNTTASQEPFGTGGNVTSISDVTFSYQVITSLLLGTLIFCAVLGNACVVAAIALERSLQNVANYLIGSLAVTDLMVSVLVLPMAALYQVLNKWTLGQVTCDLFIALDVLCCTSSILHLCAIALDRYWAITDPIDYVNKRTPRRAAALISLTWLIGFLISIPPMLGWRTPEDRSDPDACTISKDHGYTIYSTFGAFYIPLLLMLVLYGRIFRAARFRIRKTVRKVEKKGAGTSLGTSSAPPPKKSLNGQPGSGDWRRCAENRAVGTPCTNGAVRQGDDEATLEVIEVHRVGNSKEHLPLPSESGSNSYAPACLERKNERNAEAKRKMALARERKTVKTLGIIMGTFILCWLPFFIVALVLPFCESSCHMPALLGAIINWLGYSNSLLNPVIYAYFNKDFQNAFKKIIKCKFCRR

Rattus norvegicus [6] = test: Antiparkinsonian activity in 6-hydroxydopamine lesioned Sprague-Dawley rat assessed as contralateral rotations at 1.5 mg/kg, ip measured every 5 mins for 6 hrs pretreated with D2 receptor antagonist 2 mg/kg of spiperone for 15 mins before compound challenge; format: functional, organism-based
D(2) dopamine receptor [7] = biological target: T1, D(2) dopamine receptor; test: Displacement of [3H]spiperone from dopamine D2 receptor expressed in HEK293 cells after 50 mins by beta liquid scintillation counter; format: cell-based
[8] = biological target: T3, 5-hydroxytryptamine receptor 1A (Rattus norvegicus); test: Decrease of 5HT1A receptor-mediated excitatory postsynaptic current amplitude in Sprague-Dawley rat median prefrontal cortex at 10 uM by whole-cell voltage clamp assay; format: tissue-based; parameters: scale not given: the % may be the effect or the level left
[9] = biological target: 5-hydroxytryptamine receptor 2A (Homo sapiens, UniProt P28223); test: Displacement of [3H]ketanserin from 5-HT2A receptor expressed in CHO cells at 10 uM after 50 mins by beta liquid scintillation counter; format: cell-based
5-hydroxytryptamine receptor 2A, sequence (P28223 whole entry): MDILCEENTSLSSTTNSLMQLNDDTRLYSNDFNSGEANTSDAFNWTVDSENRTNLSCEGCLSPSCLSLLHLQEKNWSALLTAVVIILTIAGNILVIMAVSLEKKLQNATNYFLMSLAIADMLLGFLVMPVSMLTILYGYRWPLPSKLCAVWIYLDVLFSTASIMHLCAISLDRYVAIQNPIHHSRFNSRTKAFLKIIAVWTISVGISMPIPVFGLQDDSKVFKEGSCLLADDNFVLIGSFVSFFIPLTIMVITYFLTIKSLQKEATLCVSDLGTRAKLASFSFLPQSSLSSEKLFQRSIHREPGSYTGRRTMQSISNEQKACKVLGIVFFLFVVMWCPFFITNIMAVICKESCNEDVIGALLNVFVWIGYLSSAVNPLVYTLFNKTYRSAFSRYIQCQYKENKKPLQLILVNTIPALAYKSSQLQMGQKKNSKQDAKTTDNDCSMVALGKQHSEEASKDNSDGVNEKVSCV

[10] = biological target: Beta-2 adrenergic receptor (Homo sapiens, UniProt P07550); test: Antagonist activity at adrenergic beta2 receptor expressed in HEK293 cells co-transfected with Galpha16 assessed as inhibition of adrenaline-induced intracellular calcium after 3 to 5 mins by Fluo-4/AM assay; format: functional, cell-based
Beta-2 adrenergic receptor, sequence (P07550 whole entry): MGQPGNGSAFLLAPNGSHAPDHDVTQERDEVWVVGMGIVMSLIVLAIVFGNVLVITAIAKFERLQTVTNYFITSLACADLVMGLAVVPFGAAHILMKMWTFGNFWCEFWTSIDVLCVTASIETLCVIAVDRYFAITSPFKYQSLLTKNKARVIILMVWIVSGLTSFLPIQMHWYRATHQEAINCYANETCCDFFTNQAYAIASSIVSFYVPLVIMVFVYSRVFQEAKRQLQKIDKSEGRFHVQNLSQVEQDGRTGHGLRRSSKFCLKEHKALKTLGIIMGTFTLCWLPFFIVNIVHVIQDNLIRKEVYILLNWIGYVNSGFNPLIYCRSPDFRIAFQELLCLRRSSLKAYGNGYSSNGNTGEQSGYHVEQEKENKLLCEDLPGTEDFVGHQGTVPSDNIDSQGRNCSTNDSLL

[11] = biological target: T4, Alpha-1D adrenergic receptor (Homo sapiens, UniProt P25100); test: Antagonist activity at adrenergic Alpha-1D receptor expressed in HEK293 cells co-transfected with Galpha16 assessed as inhibition of adrenaline-induced intracellular calcium after 3 to 5 mins by Fluo-4/AM assay; format: functional, cell-based
T4 sequence (P25100 whole entry): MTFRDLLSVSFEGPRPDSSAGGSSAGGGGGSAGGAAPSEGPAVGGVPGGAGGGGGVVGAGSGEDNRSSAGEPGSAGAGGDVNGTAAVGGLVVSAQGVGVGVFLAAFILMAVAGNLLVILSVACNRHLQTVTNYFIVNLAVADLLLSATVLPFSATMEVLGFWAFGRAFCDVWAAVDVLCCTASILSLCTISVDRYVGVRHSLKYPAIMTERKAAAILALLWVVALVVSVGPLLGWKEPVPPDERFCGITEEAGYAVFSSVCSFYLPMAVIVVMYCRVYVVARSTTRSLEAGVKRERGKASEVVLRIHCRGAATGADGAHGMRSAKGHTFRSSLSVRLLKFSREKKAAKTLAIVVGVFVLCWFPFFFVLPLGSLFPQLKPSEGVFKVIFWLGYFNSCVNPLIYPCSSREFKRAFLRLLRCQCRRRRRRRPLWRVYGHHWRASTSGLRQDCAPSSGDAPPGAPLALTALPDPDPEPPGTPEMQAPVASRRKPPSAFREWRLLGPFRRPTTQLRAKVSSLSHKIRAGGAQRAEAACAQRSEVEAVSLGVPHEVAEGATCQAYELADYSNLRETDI

D(1A) dopamine receptor = D(1A) dopamine receptor (Homo sapiens, UniProt P21728); test: Displacement of [3H]SCH23390 from dopamine D1 receptor expressed in HEK293 cells at 10 uM after 50 mins by beta liquid scintillation counter; format: cell-based
D(1A) dopamine receptor, sequence (P21728 whole entry): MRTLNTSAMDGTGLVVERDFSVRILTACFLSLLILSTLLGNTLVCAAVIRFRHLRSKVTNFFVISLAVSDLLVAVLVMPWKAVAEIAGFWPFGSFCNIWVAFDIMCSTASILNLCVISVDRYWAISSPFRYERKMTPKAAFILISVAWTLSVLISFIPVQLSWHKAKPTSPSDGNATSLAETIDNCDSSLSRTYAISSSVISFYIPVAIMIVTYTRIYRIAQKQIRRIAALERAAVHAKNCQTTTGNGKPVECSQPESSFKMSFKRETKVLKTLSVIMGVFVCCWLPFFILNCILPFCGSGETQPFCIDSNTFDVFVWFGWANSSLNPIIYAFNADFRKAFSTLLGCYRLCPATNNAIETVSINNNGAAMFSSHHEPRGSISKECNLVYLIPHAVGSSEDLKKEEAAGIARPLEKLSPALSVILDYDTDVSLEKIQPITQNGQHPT

Rattus norvegicus [12] = test: Antiparkinsonian effect in 21 days L-DOPA treated Parkinson's disease rat model assessed as reduction in L-DOPA-induced dyskinesia at 0.5 to 1.5 mg/kg, ip administered 15 mins before L-DOPA challenge on day 23; format: functional, organism-based
[13] = biological target: T3, 5-hydroxytryptamine receptor 1A (Rattus norvegicus); test: Decrease of 5HT1A receptor-mediated excitatory postsynaptic current amplitude in Sprague-Dawley rat median prefrontal cortex at 10 uM by whole-cell voltage clamp assay in presence of 10 uM of 5HT1A receptor antagonist WAY-100635; format: functional, tissue-based; parameters: scale not given: the % may be the effect or the level left
[14] = biological target: T2, 5-hydroxytryptamine receptor 1A; test: Displacement of [3H]-8-OH-DPAT from 5-HT1A receptor expressed in CHO cells after 50 mins by beta liquid scintillation counter; format: cell-based
Rattus norvegicus [15] = test: Antiparkinsonian effect in 6-hydroxydopamine lesioned Sprague-Dawley rat Parkinson's disease model assessed as inhibition of L-DOPA-enhanced FosB expression in striatum at 1.5 mg/kg administered qd for 21 days by Western blot analysis; format: functional, organism-based; parameters: dose 1.5 mg/kg
Rattus norvegicus [16] = test: Antiparkinsonian effect in 6-hydroxydopamine lesioned Sprague-Dawley rat Parkinson's disease model assessed as induction of FosB expression in striatum at 1.5 mg/kg administered qd for 21 days by Western blot analysis; format: functional, organism-based; parameters: dose 1.5 mg/kg
Rattus norvegicus [17] = test: Antiparkinsonian activity in 6-hydroxydopamine lesioned Sprague-Dawley rat assessed as contralateral rotations at 1.5 mg/kg, ip measured every 5 mins for 6 hrs pretreated with 5-HT1A receptor antagonist 0.1 mg/kg of WAY-100635 for 10 mins before compound challenge; format: functional, organism-based

T1 sequence (P14416 whole entry): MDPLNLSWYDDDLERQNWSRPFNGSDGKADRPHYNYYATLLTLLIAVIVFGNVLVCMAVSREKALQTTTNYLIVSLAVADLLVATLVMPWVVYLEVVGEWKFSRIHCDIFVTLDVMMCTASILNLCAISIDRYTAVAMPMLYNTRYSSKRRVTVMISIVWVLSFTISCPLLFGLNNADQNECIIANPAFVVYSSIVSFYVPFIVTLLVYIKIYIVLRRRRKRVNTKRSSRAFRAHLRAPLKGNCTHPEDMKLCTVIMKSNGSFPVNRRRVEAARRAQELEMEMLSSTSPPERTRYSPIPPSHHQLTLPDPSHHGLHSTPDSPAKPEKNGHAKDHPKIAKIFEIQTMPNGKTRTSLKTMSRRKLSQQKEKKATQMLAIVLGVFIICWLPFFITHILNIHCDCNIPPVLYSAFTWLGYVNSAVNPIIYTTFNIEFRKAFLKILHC

EC50 (D(2) dopamine receptor [1]): 320 nM
EC50 [2]: 190 nM
Activity [5]: 114%
Ki (D(2) dopamine receptor [7]): 174 nM
Activity [8]: 63.8%
inhibition [9]: 48%
IC50 [10]: > 10 µM
IC50 [11]: > 10 µM
inhibition (D(1A) dopamine receptor): 55.7%
Activity [13]: 99.4%
Ki [14]: 66 nM
SMILES: CCCN1CCc2cccc3c2[C@H]1Cc1cccc(OC(=O)CCCCC2CCSS2)c1-3 (stereo partly drawn)
Activity (Rattus norvegicus [3]): Active
Activity (Rattus norvegicus [4]): Active
Activity (Rattus norvegicus [6]): inactive
Activity (Rattus norvegicus [12]): inactive
Activity (Rattus norvegicus [15]): Active
Activity (Rattus norvegicus [16]): inactive
Activity (Rattus norvegicus [17]): Active
